Results reported in patent US20210369680A1, “METHODS OF TREATING DISEASES AND DISORDERS RESULTING FROM BETA CORONAVIRUS INFECTION” (T3D Therapeutics, Inc., priority 2020, published 2021).

Experiment: Fasted plasma metabolomics, clinical study
Format: in vivo, human
Protocol: Plasma Metabolomic Data from Clinical Study with Compound of Example 11
Fasted plasma metabolomics biomarkers were examined seeking evidence of systemic and brain pharmacological effects of Compound from Example 11. Over 800 chemically defined metabolites were examined for each dose group and a ratio EOT/BL) was calculated with an associated p value. Four dose groups were tested, 3, 10 30 and 90 mg. In general, the 30 and 90 mg dose groups had the largest impact on the metabolomics profile, each with 120 metabolites with p<0.05, while the 3 and 10 mg groups had smaller effects (40 and 61 with p<0.05 respectively). The metabolites were split into about 60 families. […] BCAAs are positively correlated with insulin resistance and diabetes. […] Some of these metabolites, such as isovaleryl and isobutyryl carnitine are part of a principal component shown to be positively associated with insulin resistance. The numbers in Table 7 are ratios of the dose group averages end of treatment (EOT) to baseline (BL). A green box indicates a statistically significant (p<0.05) decrease in metabolite. The light green indicates the p value is between 0.05 and 0.1. Statistical comparisons between doses and visits were conducted using Two-Way Repeated Measure ANOVA. Reference is made to Newgard CB, 2017. Metabolomics and Metabolic Disease, Where Do We Stand? Cell Metabolism 25: 43-56, which is incorporated by reference with regard to the example.

## CCc1oc(-c2ccc(OC)cc2)nc1CCOc1ccc2c(c1)CC[C@H]2CC(=O)[O-].[Na+] [Example 11, Sodium (S)-2-(5-(2-(5-ethyl-2-(4-methoxyphenyl)oxazol-4-yl)ethoxy)-2,3-dihydro-1H-inden-1-yl)acetate]
3 mg
  2-methylbutyrylcarnitine (C5), ratio EOT/BL: 0.99
  3-hydroxybutyrlcarnite, ratio EOT/BL: 1.2
  Adrenoylcarnitine (C22:4)*, ratio EOT/BL: 1.41
  Arachidonoylcarnitine (C20:4), ratio EOT/BL: 1.34
  Arachidoylcarnitine (C20)*, ratio EOT/BL: 1.11
  Ceramide (d18:2/24:1, d18:1/24:2), ratio EOT/BL: 1.08
  Dihomo-linoleoylcarnitine (C20:2)*, ratio EOT/BL: 1.24
  Docosapentaenoylcarnitine (C22:5n3)*, ratio EOT/BL: 1.39
  Eicosenoylcarnitine (C20:1), ratio EOT/BL: 1.22
  Linolenoylcarnitine (C18:3)*, ratio EOT/BL: 1.17
  Linoleoylcarnitine (C18:2)*, ratio EOT/BL: 1.22
  Margaroylcarnitine*, ratio EOT/BL: 1.03
  Myristoycarnitine (C14), ratio EOT/BL: 1.32
  N-acetylleucine, ratio EOT/BL: 0.98
  N-palmitoyl-sphingosince (d18:1/16:0), ratio EOT/BL: 1.06
  N-stearoyl-sphinogosince (d18:1/18:0), ratio EOT/BL: 1.05
  Oleoylcarnitine (C18:1), ratio EOT/BL: 1.34
  Palmitoleoylcarnitine (C16:1)*, ratio EOT/BL: 1.44
  Palmitoylcaritine (C16), ratio EOT/BL: 1.25
  Stearoylcarnitine (C18), ratio EOT/BL: 1.11
  acetylcarnitine (C2), ratio EOT/BL: 1.14
  ceramide (d16:1/24:1, d18:1/22:1), ratio EOT/BL: 1.13
  ceramide (d18:1/14:0, d16:1/16:0), ratio EOT/BL: 1.1
  ceramide (d18:1/17:0, d17:1/18:0), ratio EOT/BL: 1.03
  ceramide (d18:1/20:0, d16:1/22:0 d20:1/18:0), ratio EOT/BL: 1.12
  isobutyrylcarnitine (C4), ratio EOT/BL: 0.95
  isoleucine, ratio EOT/BL: 0.93
  isovalerylcarnitine (C5), ratio EOT/BL: 1.11
  laurylcarnitine (C12), ratio EOT/BL: 1.4
  leucine, ratio EOT/BL: 0.95
  number of metabolites with p<0.05: 40
  octanoylcarnitine (C8), ratio EOT/BL: 1.33
  valine, ratio EOT/BL: 0.93
10 mg
  2-methylbutyrylcarnitine (C5), ratio EOT/BL: 1.02
  3-hydroxybutyrlcarnite, ratio EOT/BL: 1.19
  Adrenoylcarnitine (C22:4)*, ratio EOT/BL: 1.23
  Arachidonoylcarnitine (C20:4), ratio EOT/BL: 1.23
  Arachidoylcarnitine (C20)*, ratio EOT/BL: 1.09
  Ceramide (d18:2/24:1, d18:1/24:2), ratio EOT/BL: 0.96
  Dihomo-linoleoylcarnitine (C20:2)*, ratio EOT/BL: 1.24
  Docosapentaenoylcarnitine (C22:5n3)*, ratio EOT/BL: 1.18
  Eicosenoylcarnitine (C20:1), ratio EOT/BL: 1.03
  Linolenoylcarnitine (C18:3)*, ratio EOT/BL: 1.19
  Linoleoylcarnitine (C18:2)*, ratio EOT/BL: 1.21
  Margaroylcarnitine*, ratio EOT/BL: 1.15
  Myristoycarnitine (C14), ratio EOT/BL: 1.13
  N-acetylleucine, ratio EOT/BL: 1
  N-palmitoyl-sphingosince (d18:1/16:0), ratio EOT/BL: 1.02
  N-stearoyl-sphinogosince (d18:1/18:0), ratio EOT/BL: 0.98
  Oleoylcarnitine (C18:1), ratio EOT/BL: 1.1
  Palmitoleoylcarnitine (C16:1)*, ratio EOT/BL: 1.11
  Palmitoylcaritine (C16), ratio EOT/BL: 1.12
  Stearoylcarnitine (C18), ratio EOT/BL: 1.19
  acetylcarnitine (C2), ratio EOT/BL: 1.03
  ceramide (d16:1/24:1, d18:1/22:1), ratio EOT/BL: .095
  ceramide (d18:1/14:0, d16:1/16:0), ratio EOT/BL: 1.05
  ceramide (d18:1/17:0, d17:1/18:0), ratio EOT/BL: 1.12
  ceramide (d18:1/20:0, d16:1/22:0 d20:1/18:0), ratio EOT/BL: 1.05
  isobutyrylcarnitine (C4), ratio EOT/BL: 1.01
  isoleucine, ratio EOT/BL: 0.94
  isovalerylcarnitine (C5), ratio EOT/BL: 0.97
  laurylcarnitine (C12), ratio EOT/BL: 1.17
  leucine, ratio EOT/BL: 0.98
  number of metabolites with p<0.05: 61
  octanoylcarnitine (C8), ratio EOT/BL: 1.21
  valine, ratio EOT/BL: 1.06
30 mg
  2-methylbutyrylcarnitine (C5), ratio EOT/BL: 0.96
  3-hydroxybutyrlcarnite, ratio EOT/BL: 1.26
  Adrenoylcarnitine (C22:4)*, ratio EOT/BL: 1.44
  Arachidonoylcarnitine (C20:4), ratio EOT/BL: 1.34
  Arachidoylcarnitine (C20)*, ratio EOT/BL: 1.16
  Ceramide (d18:2/24:1, d18:1/24:2), ratio EOT/BL: 0.92
  Dihomo-linoleoylcarnitine (C20:2)*, ratio EOT/BL: 1.47
  Docosapentaenoylcarnitine (C22:5n3)*, ratio EOT/BL: 1.65
  Eicosenoylcarnitine (C20:1), ratio EOT/BL: 1.43
  Linolenoylcarnitine (C18:3)*, ratio EOT/BL: 1.35
  Linoleoylcarnitine (C18:2)*, ratio EOT/BL: 1.37
  Margaroylcarnitine*, ratio EOT/BL: 1.14
  Myristoycarnitine (C14), ratio EOT/BL: 1.29
  N-acetylleucine, ratio EOT/BL: 0.91
  N-palmitoyl-sphingosince (d18:1/16:0), ratio EOT/BL: 0.89
  N-stearoyl-sphinogosince (d18:1/18:0), ratio EOT/BL: 0.82
  Oleoylcarnitine (C18:1), ratio EOT/BL: 1.51
  Palmitoleoylcarnitine (C16:1)*, ratio EOT/BL: 1.66
  Palmitoylcaritine (C16), ratio EOT/BL: 1.29
  Stearoylcarnitine (C18), ratio EOT/BL: 1.24
  acetylcarnitine (C2), ratio EOT/BL: 1.19
  ceramide (d16:1/24:1, d18:1/22:1), ratio EOT/BL: 0.71
  ceramide (d18:1/14:0, d16:1/16:0), ratio EOT/BL: 0.86
  ceramide (d18:1/17:0, d17:1/18:0), ratio EOT/BL: 0.91
  ceramide (d18:1/20:0, d16:1/22:0 d20:1/18:0), ratio EOT/BL: 0.83
  isobutyrylcarnitine (C4), ratio EOT/BL: 0.77
  isoleucine, ratio EOT/BL: 0.96
  isovalerylcarnitine (C5), ratio EOT/BL: 0.99
  laurylcarnitine (C12), ratio EOT/BL: 1.35
  leucine, ratio EOT/BL: 1
  number of metabolites with p<0.05: 120
  octanoylcarnitine (C8), ratio EOT/BL: 1.44
  valine, ratio EOT/BL: 0.96
90 mg
  2-methylbutyrylcarnitine (C5), ratio EOT/BL: 0.81
  3-hydroxybutyrlcarnite, ratio EOT/BL: 1.53
  Adrenoylcarnitine (C22:4)*, ratio EOT/BL: 1.54
  Arachidonoylcarnitine (C20:4), ratio EOT/BL: 1.31
  Arachidoylcarnitine (C20)*, ratio EOT/BL: 1.17
  Ceramide (d18:2/24:1, d18:1/24:2), ratio EOT/BL: 0.99
  Dihomo-linoleoylcarnitine (C20:2)*, ratio EOT/BL: 1.54
  Docosapentaenoylcarnitine (C22:5n3)*, ratio EOT/BL: 1.45
  Eicosenoylcarnitine (C20:1), ratio EOT/BL: 1.61
  Linolenoylcarnitine (C18:3)*, ratio EOT/BL: 1.25
  Linoleoylcarnitine (C18:2)*, ratio EOT/BL: 1.22
  Margaroylcarnitine*, ratio EOT/BL: 1.21
  Myristoycarnitine (C14), ratio EOT/BL: 1.56
  N-acetylleucine, ratio EOT/BL: 0.82
  N-palmitoyl-sphingosince (d18:1/16:0), ratio EOT/BL: 0.89
  N-stearoyl-sphinogosince (d18:1/18:0), ratio EOT/BL: 0.82
  Oleoylcarnitine (C18:1), ratio EOT/BL: 1.46
  Palmitoleoylcarnitine (C16:1)*, ratio EOT/BL: 1.79
  Palmitoylcaritine (C16), ratio EOT/BL: 1.31
  Stearoylcarnitine (C18), ratio EOT/BL: 1.18
  acetylcarnitine (C2), ratio EOT/BL: 1.23
  ceramide (d16:1/24:1, d18:1/22:1), ratio EOT/BL: 0.84
  ceramide (d18:1/14:0, d16:1/16:0), ratio EOT/BL: 0.77
  ceramide (d18:1/17:0, d17:1/18:0), ratio EOT/BL: 0.84
  ceramide (d18:1/20:0, d16:1/22:0 d20:1/18:0), ratio EOT/BL: 0.84
  isobutyrylcarnitine (C4), ratio EOT/BL: 0.57
  isoleucine, ratio EOT/BL: 0.84
  isovalerylcarnitine (C5), ratio EOT/BL: 0.68
  laurylcarnitine (C12), ratio EOT/BL: 1.56
  leucine, ratio EOT/BL: 0.8
  number of metabolites with p<0.05: 120
  octanoylcarnitine (C8), ratio EOT/BL: 1.58
  valine, ratio EOT/BL: 0.79
